Test results reported in article PMC7395068, “The evolution of strategies to minimise the risk of human drug-induced liver injury (DILI) in drug discovery and development” (Archives of Toxicology, 2020).
Like-named read-outs stand apart in the source and are kept apart here.

What was measured:
[1] = test system: THLE-Null and THLE-3A4 cells; conditions: In vitro Assay; ref Gustafsson 2014; cited from earlier work
[2] = test system: HepG2 cells; conditions: cited from earlier work
[3] = test system: hLiMTs; conditions: cited from earlier work; for hLiMTs ATP <100uM: In vitro Assay, ref Proctor 2017
[4] = test system: PHH spheroids; conditions: cited from earlier work
[5] = test system: isolated mouse liver mitochondria; conditions: In vitro Assay; ref Porceddu 2012; cited from earlier work
[6] = cited from earlier work
[7] = test system: hLiMTs; assay: Combined HCI (HCS) and cellular ATP 3D assay in hLiMTs; conditions: for AC50 / minimal effective concentration: Homo sapiens
[8] = test system: HepG2 C3A spheroid, BSEP, Glu/Gal in HepG2 cells, bioactivation; conditions: cited from earlier work; for Bayesian Machine Learning: ref Williams 2019
[9] = cited from earlier work; remark: listed apart in the source
[10] = Plasma free fraction (fu) and unbound Cmax (Cmax,u); format: in vitro ADME, human
[11] = test system: PHH; conditions: cited from earlier work; for PHH ATP <100uM: In vitro Assay, ref Proctor 2017
[12] = test system: HepaRG spheroids; assay: Combined HCI (HCS) and cellular ATP 3D assay in HepaRG spheroids; conditions: for AC50 / minimal effective concentration: Homo sapiens
[13] = cited from earlier work; remark: listed apart in the source
[14] = test system: rBsep; conditions: In vitro Assay; ref Dawson 2012; cited from earlier work
[15] = plasma free fraction; cited from earlier work
[16] = test system: HepaRG spheroids
[17] = test system: hLiMTs
[18] = Microtissue model structural based (HCI), combined HCS and ATP, MEC < 25 × Cmax.tot cut-off
[19] = HepaRG, read-out: ATP endpoint AC50
[20] = HepaRG, read-out: HCS endpoint AC50

SMILES: Clc1ccccc1CN1CCc2sccc2C1 [ticlopidine]
- THLE-Null [1]: +VE
- Structural based (HCI) ([2]; In vitro Assay, ref Tolosa 2012): +VE
- DILI in vitro assay prediction, Tolosa (2012) ([2]; Structural based (HCI), HepG2, ref Tolosa et al. 2012): +VE
- hLiMTs ATP <100uM [3]: +VE (IC50 threshold of 100 µM)
- hLiMTs/100uM, Proctor (2017) ([3]; hLiMTs, ATP, IC50 threshold 100 µM, ref Proctor et al. 2017): -VE
- hLiMTs ATP <20 x Cmax ([4]; In vitro Assay, ref Vorrink 2018): +VE (IC20 < 20 × Cmax.tot cut-off)
- DILI in vitro assay prediction, Vorrink (2018) ([4]; PHH spheroids, ATP, 14 days, IC20 < 20 × Cmax.tot, ref Vorrink et al. 2018): +VE (IC20 < 20 × Cmax.tot cut-off)
- in vitro data EC2<=1x Cmax [5]: +VE
- in vitro data EC20<=2uM [5]: +VE
- DILI severity category (Chen et al. [2016]) ([6]; LTKB DILIrank category, ref Chen et al. 2016): Most
- DILI severity category ([6]; human DILI severity, ref Chen et al.): Most
- DILI +VE (5-8), DILI -VE (-4) ([6]; ref Chen 2016): +VE
- DILI severity category ([6]; ref Chen 2016): vMost-DILI-Concern
- AC50 ([7]; read-out: ATP endpoint AC50): 10.7 µM
- AC50 ([7]; read-out: HCS endpoint AC50): 115 µM
- DILI prediction hLiMTs (HCS-MEC) [7, 18]: +VE (MEC < 25 × Cmax.tot cut-off)
- hLiMTs <25x Avg Cmax ATP ([7]; hLiMTs, ATP endpoint, cut-off <25x Avg Cmax): +ve
- hLiMTs <100x Avg Cmaxu ATP ([7]; hLiMTs, ATP endpoint, cut-off <100x Avg Cmaxu): +ve (<100x Avg Cmaxu)
- hLiMTs <25x Avg Cmax HCS ([7]; hLiMTs, HCS endpoints, cut-off <25x Avg Cmax): +ve
- hLiMTs <100x Avg Cmaxu HCS ([7]; hLiMTs, HCS endpoints, cut-off <100x Avg Cmaxu): -ve
- hLiMTs <25x Avg Cmax All ([7]; hLiMTs, all endpoints (ATP and HCS), cut-off <25x Avg Cmax): +ve
- hLiMTs Cmax max All ([7]; hLiMTs, all endpoints, Cmax max used): +ve
- hLiMTs Cmax min All ([7]; hLiMTs, all endpoints, Cmax min used): +ve
- hLiMTs <10 uM All ([7]; hLiMTs, all endpoints, cut-off <10 uM): +ve (<10 uM)
- hLiMTs <100x Avg Cmaxu All ([7]; hLiMTs, all endpoints, cut-off <100x Avg Cmaxu): +ve (<100x Avg Cmaxu)
- Bayesian Machine Learning DILI prediction, Williams (2019) ([8]; Bayesian modeling, ref Williams et al. 2019): +VE
- Bayesian Machine Learning ([8]; In vitro Assay): +VE
- Cmax ([9]; read-out: Human plasma Cmax, total plasma Cmax.tot, median of 9 literature references): 8.07 µM
- Human plasma Cmax,u ([10]; unbound plasma Cmax): 0.161 µM
- PHH/100uM, Proctor (2017) ([11]; 2D PHH, ATP, IC50 threshold 100 µM, ref Proctor et al. 2017): -VE
- PHH ATP <100uM [11]: -VE
- HepaRG <25x Avg Cmax ATP ([12]; HepaRG, ATP endpoint, cut-off <25x Avg Cmax): +ve
- HepaRG <100x Avg Cmaxu ATP ([12]; HepaRG, ATP endpoint, cut-off <100x Avg Cmaxu): -ve
- HepaRG <25x Avg Cmax HCS ([12]; HepaRG, HCS endpoints, cut-off <25x Avg Cmax): +ve
- HepaRG <100x Avg Cmaxu HCS ([12]; HepaRG, HCS endpoints, cut-off <100x Avg Cmaxu): -ve
- HepaRG <25x Avg Cmax All ([12]; HepaRG, all endpoints (ATP and HCS), cut-off <25x Avg Cmax): +ve
- HepaRG Cmax max All ([12]; HepaRG, all endpoints, Cmax max used): +ve
- HepaRG Cmax min All ([12]; HepaRG, all endpoints, Cmax min used): +ve
- HepaRG <10 uM All ([12]; HepaRG, all endpoints, cut-off <10 uM): -ve
- HepaRG <100x Avg Cmaxu All ([12]; HepaRG, all endpoints, cut-off <100x Avg Cmaxu): -ve
- AC50 [12, 19]: 56 µM
- AC50 [12, 20]: 60.8 µM
- DILI prediction HepaRG spheroids (HCS-MEC) [12, 18]: +VE (MEC < 25 × Cmax.tot cut-off)
- Assigned DILI category ([13]; Chen et al. 2016 or literature alignment, ref Chen et al. 2016): 3
- In vivo DILI ([13]; […]): +VE
- In vivo DILI ([13]; ref Dawson 2012): +VE
- In vivo DILI ([13]; ref Garside 2014): +VE
- In vivo DILI ([13]; ref Gustafsson 2014): +VE
- In vivo DILI ([13]; ref Porceddu 2012): +VE
- In vivo DILI ([13]; ref Proctor 2017): +VE
- In vivo DILI ([13]; ref Tolosa 2012): +VE
- In vivo DILI ([13]; ref Vorrink 2018): +VE
- In vivo DILI ([13]; ref Williams 2019): +VE
- In vivo DILI ([13]; ref Xu 2008): +VE
- Inhibition of rBsep cutoff<1& cmax u>.2 [14]: +VE
- Inhibition of rBsep cutoff<3 [14]: +VE
- fu [15]: 0.020

SMILES: CC(C)[N+](C)(CCOC(=O)C1c2ccccc2Oc2ccccc21)C(C)C [propantheline]
- hLiMTs ATP <100uM [3]: -VE
- DILI severity category ([6]; in vivo): No
- DILI +VE (5-8), DILI -VE (-4) ([6]; ref Chen 2016): -VE
- DILI severity category ([6]; ref Chen 2016): vNo-DILI-Concern
- HepaRG <10 uM All [16]: -ve
- HepaRG Cmax max All ([16]; human): -ve
- HepaRG Cmax min All ([16]; human): -ve
- Bayesian Machine Learning [8]: -VE
- hLiMTs <10 uM All [17]: -ve
- hLiMTs Cmax max All ([17]; human): -ve
- hLiMTs Cmax min All ([17]; human): -ve
- PHH ATP <100uM [11]: -VE
- In vivo DILI ([13]; ref Proctor 2017): -VE
- In vivo DILI ([13]; ref Williams 2019): -VE

SMILES: CO[C@@]12[C@H](COC(N)=O)C3=C(C(=O)C(C)=C(N)C3=O)N1C[C@@H]1N[C@@H]12 [mitomycin C]
- hLiMTs/100uM, Proctor (2017) [3]: +VE (key: +VE: IC50 threshold of 100 µM)
- AC50 ([7]; read-out: ATP endpoint AC50): 0.929 µM
- minimal effective concentration ([7]; read-out: ATP endpoint MEC): 0.454 µM
- AC50 ([7]; read-out: HCS endpoint AC50): 1.09 µM
- minimal effective concentration ([7]; read-out: HCS endpoint MEC): 0.399 µM
- HepaRG <10 uM All [16]: +ve (key: +ve: <10 uM)
- HepaRG <100x Avg Cmaxu ATP ([16]; human): +ve (key: +ve: <100x Avg Cmaxu)
- HepaRG <100x Avg Cmaxu All ([16]; human): +ve (key: +ve: <100x Avg Cmaxu)
- HepaRG <100x Avg Cmaxu HCS ([16]; human): +ve (key: +ve: <100x Avg Cmaxu)
- HepaRG Cmax max All ([16]; human): +ve
- HepaRG Cmax min All ([16]; human): +ve
- Cmax ([9]; human, in vivo): 7.1 µM
- Human plasma Cmax,u ([10]; human): 5.396 µM
- hLiMTs <10 uM All [17]: +ve (key: +ve: <10 uM)
- hLiMTs <100x Avg Cmaxu ATP ([17]; human): +ve (key: +ve: <100x Avg Cmaxu)
- hLiMTs <100x Avg Cmaxu All ([17]; human): +ve (key: +ve: <100x Avg Cmaxu)
- hLiMTs <100x Avg Cmaxu HCS ([17]; human): +ve (key: +ve: <100x Avg Cmaxu)
- hLiMTs Cmax max All ([17]; human): +ve
- hLiMTs Cmax min All ([17]; human): +ve
- PHH/100uM, Proctor (2017) [11]: +VE (key: +VE: IC50 threshold of 100 µM)
- AC50 [12, 19]: 0.4 µM
- minimal effective concentration ([12]; HepaRG, read-out: ATP endpoint MEC): 0.4 µM
- AC50 [12, 20]: 0.4 µM
- minimal effective concentration ([12]; HepaRG, read-out: HCS endpoint MEC): 0.4 µM
